Reference: US12544384B2, “Antibiotic conjugates” (priority 2018, dated 2026)
≈ marks a conversion by molar mass, not a printed value. Read-outs that look alike come from different tables or passages of the source.

Columns and labels:
E. coli DC0 = test: MIC against other Gram-negative bacteria; conditions: for Antibacterial activity (in words): Escherichia coli DC0; for MIC: Escherichia coli, DC0, read-out: Activity (MIC)
Description: (§3) This plasmid was then introduced by electroporation into A. baumannii ATCC 17978 for MIC measurements. MIC analyses were performed using iron depleted media as described previously (Ghosh, J. Med. Chem., 2017, 60, 4577-4583).

[1] = system: A. baumannii ATCC 17978 pNT255; test: MIC, antimicrobial susceptibility assay, strain with pNT255 vector; type: cell-based; conditions: Acinetobacter baumannii, ATCC17978, read-out: Activity (MIC)
From the text: (§1) For this purpose, A. baumannii ATCC 17978, which produces a small amount of the chromosomally-encoded enzyme, and the same strain that produces a large amount of ADC-1 from the pNT255 vector were used (Table 1).

[2] = system: A. baumannii ATCC 17978 pNT225: ADC-1; test: MIC, antimicrobial susceptibility assay, strain with plasmid-encoded ADC-1 β-lactamase; type: cell-based, Acinetobacter baumannii; conditions: for MIC: Acinetobacter baumannii, ATCC17978, read-out: Activity (MIC)
From the text: as §1

A. baumannii ATCC 17978 = test: MIC, antimicrobial susceptibility assay in iron depleted media; type: cell-based, Acinetobacter baumannii; conditions: for Antibacterial activity (in words): A. baumannii ATCC 17978, low amount of ADC-1; for MIC: Acinetobacter baumannii, ATCC17978, A. baumannii ATCC 17978, small amount of chromosomal ADC-1, iron depleted media, average of three measurements
From the text: as §1

[3] = system: A. baumannii ATCC BAA 1793; test: MIC against clinical isolate; type: cell-based, Acinetobacter baumannii; conditions: for MIC: Acinetobacter baumannii; for Antibacterial activity (in words): clinical isolate ATCC BAA1793
Description: (§2) Subsequently, the activities of the disclosed compounds were evaluated against four clinical isolates of A. baumannii (ATCC 17961, ATCC BAA1793, ATCC BAA1797 and ATTC BAA1800). All four A. baumannii isolates were resistant to compounds 3, 22, 23, and 27. Strain ATCC 17961 was susceptible to both 26 and 1, indicating lack of or low β-lactamase content and/or activity.

[4] = system: A. baumannii ATCC BAA 1800; test: MIC against clinical isolate; type: cell-based, Acinetobacter baumannii; conditions: for MIC: Acinetobacter baumannii; for Antibacterial activity (in words): clinical isolate ATCC BAA1800
Description: as §2

A. baumannii ATCC 17961 = test: MIC against clinical isolate; type: cell-based, Acinetobacter baumannii; conditions: for MIC: Acinetobacter baumannii; for Antibacterial activity (in words): clinical isolate ATCC 17961
Description: as §2

[5] = system: A. baumannii ATCC BAA 1797; test: MIC against clinical isolate; type: cell-based, Acinetobacter baumannii; conditions: for MIC: Acinetobacter baumannii; for Antibacterial activity (in words): clinical isolate ATCC BAA1797
Description: as §2

P. aeruginosa KW799/wt = test: MIC against other Gram-negative bacteria; conditions: for Antibacterial activity (in words): Pseudomonas aeruginosa KW799
Description: as §3

ADC-1 β-lactamase = test: Enzymatic hydrolysis by ADC-1, LC/MS; type: biochemical, A. baumannii; conditions: 20 μM compound, 20 μM ADC-1, 50 mM sodium phosphate pH 7.4, room temperature, 40 min
Description: With the final siderophore-cephalosporin-oxazolidinone conjugate (1) along with the separate cephalosporin and oxazolidinone conjugates (26 and 27) as well as the corresponding cephalosporin (23), oxazolidinone (3) and eperezolid (17) available, enzymatic and anti-bacterial assays were performed to test the susceptibility of conjugate (1) to the hydrolytic activity of β-lactamases from Gram-negative bacteria. Thus, assays were conducted to evaluate whether the oxazolidinone could be efficiently released from the final siderophore-cephalosporin-oxazolidinone conjugate (1) as a result of cephalosporin hydrolysis by a β-lactamase. For this purpose, one of the ADC-type β-lactamases (ADC-1) was chosen as ADC enzymes are intrinsic to A. baumannii, an important clinical pathogen, and are capable of hydrolyzing cephalosporin antibiotics.
The ADC-1 β-lactamase was expressed and purified as previously described (Bhattacharya et al., Acta Crystallogr., Sect. D: Biol. Crystallogr., 2014, 70, 760-771). Conjugate 1 (10 mM in DMSO) was diluted 5-fold in DMSO and then another 10-fold in 50 mM sodium phosphate, pH 7.4 to give a 200 μM solution with 10% DMSO. Subsequently, a 60 μL reaction was prepared consisting of 20 μM of 1 (6 μL of a 200 μM solution) and 20 μM ADC-1 β-lactamse (8.1 μL of 148 μM enzyme) in 50 mM sodium phosphate, pH 7.4 (the final concentration of DMSO was 1%). […]

[6] = system: Mycobacterium tuberculosis (Mtb); conditions: background statement; cited from earlier work
[7] = BAA1793, read-out: Activity (MIC)
[8] = BAA1800, read-out: Activity (MIC)
[9] = ATCC17961, read-out: Activity (MIC)
[10] = BAA1797, read-out: Activity (MIC)
[11] = Pseudomonas aeruginosa, KW799/WT, read-out: Activity (MIC)
[12] = BAA1793, A. baumannii ATCC BAA 1793, read-out: Activity (MIC)
[13] = BAA1800, A. baumannii ATCC BAA 1800, read-out: Activity (MIC)
[14] = ATCC17961, A. baumannii ATCC 17961, read-out: Activity (MIC)
[15] = BAA1797, A. baumannii ATCC BAA 1797, read-out: Activity (MIC)

SMILES | Antibacterial activity (in words) (E. coli DC0) | MIC (E. coli DC0) | MIC [1] | MIC [2] | Antibacterial activity (in words) (A. baumannii ATCC 17978) | MIC (A. baumannii ATCC 17978) | MIC [3, 7] | Antibacterial activity (in words) [3] | MIC [4, 8] | Antibacterial activity (in words) [4] | MIC (A. baumannii ATCC 17961; [9]) | Antibacterial activity (in words) (A. baumannii ATCC 17961) | MIC [5, 10] | Antibacterial activity (in words) [5] | Antibacterial activity (in words) (P. aeruginosa KW799/wt) | MIC (P. aeruginosa KW799/wt; [11]) | also measured
CC(=O)NC[C@H]1CN(c2ccc(N3CCN(C(=O)CNC(=O)OCC4=C(C(=O)O)N5C(=O)[C@@H](NC(=O)C(NC(=O)CN(CCCCNC(=O)c6cccc(O)c6O)C(=O)c6cccc(O)c6O)c6ccccc6)[C@H]5SC4)CC3)c(F)c2)C(=O)O1 (stereo partly drawn) [Compound 1, (6R,7R)-3-((((2-(4-(4-((S)-5-(Acetamidomethyl)-2-oxooxazolidin-3-yl)-2-fluorophenyl)piperazin-1-yl)-2-oxoethyl)carbamoyl)oxy)methyl)-7-(2-(2-(N-(4-(2,3-dihydroxybenzamido)butyl)-2,3-dihydroxybenzamido)acetamido)-2-phenylacetamido)-8-oxo-5-thia-1-azabicyclo[4.2.0]oct-2-ene-2-carboxylic acid] | remarkably active | < 0.025 µM | 0.4 µM (≈ 0.473 µg/mL) | 6 µM (≈ 7.1 µg/mL) | similarly potent activity | 0.4 µM (≈ 0.473 µg/mL) | 0.8 to 1.6 µM (≈ 0.947 to 1.89 µg/mL) | very active | 0.8 µM (≈ 0.947 µg/mL) | very active | 0.8 µM (≈ 0.947 µg/mL) | susceptible | 6.25 µM (≈ 7.39 µg/mL) | very active | remarkably active | 0.2 to 0.4 µM (≈ 0.237 to 0.473 µg/mL) | Decrease of MIC compared to the siderophore-cephalosporin ([2]; A. baumannii with plasmid-encoded β-lactamase, versus 26): at least 8 fold; Hydrolysis by purified ADC-1 and release of oxazolidinone (ADC-1 β-lactamase): rapid and complete hydrolysis and release of the oxazolidinone
CC(=O)NC[C@H]1CN(c2ccc(N3CCN(C(=O)CN)CC3)c(F)c2)C(=O)O1 [Compound 3, (S)—N-((3-(3-Fluoro-4-(4-glycylpiperazin-1-yl)phenyl)-2-oxooxazolidin-5-yl)methyl)acetamide] | not active | > 50 µM | > 500 µM | > 500 µM | not active | > 500 µM | > 50 µM | resistant | > 50 µM | resistant | > 50 µM | resistant | > 50 µM | resistant | not active | > 50 µM | –
CC(=O)NC[C@H]1CN(c2ccc(N3CCN(C(=O)CO)CC3)c(F)c2)C(=O)O1 [Compound 17, eperezolid, reference compound] | – | – | > 50 µM | > 50 µM | not active | > 50 µM | – | – | – | – | – | – | – | – | – | – | –
CC(=O)NC[C@H]1CN(c2ccc(N3CCN(C(=O)CNC(=O)OCC4=C(C(=O)O)N5C(=O)[C@@H](NC(=O)C(N)c6ccccc6)[C@H]5SC4)CC3)c(F)c2)C(=O)O1 (stereo partly drawn) [Compound 22, (6R,7R)-3-((((2-(4-(4-((S)-5-(Acetamidomethyl)-2-oxooxazolidin-3-yl)-2-fluorophenyl)piperazin-1-yl)-2-oxoethyl)carbamoyl)oxy)methyl)-7-(2-amino-2-phenylacetamido)-8-oxo-5-thia-1-azabicyclo[4.2.0]oct-2-ene-2-carboxylic acid] | not active | > 50 µM | > 50 µM | > 50 µM | not active | > 50 µM | – | resistant | – | resistant | – | resistant | – | resistant | not active | > 50 µM | MIC [3, 12]: > 50 µM; MIC [4, 13]: > 50 µM; MIC (A. baumannii ATCC 17961; [14]): > 50 µM; MIC [5, 15]: > 50 µM
CC(=O)OCC1=C(C(=O)O)N2C(=O)[C@@H](NC(=O)C(NC(=O)CN(CCCCNC(=O)c3cccc(O)c3O)C(=O)c3cccc(O)c3O)c3ccccc3)[C@H]2SC1 (stereo partly drawn) [Compound 26, (6R,7R)-3-(Acetoxymethyl)-7-(2-(2-(N-(4-(2,3-dihydroxybenzamido)butyl)-2,3-dihydroxybenzamido)acetamido)-2-phenylacetamido)-8-oxo-5-thia-1-azabicyclo[4.2.0]oct-2-ene-2-carboxylic acid] | remarkably active | < 0.025 µM | 0.4 µM (≈ 0.322 µg/mL) | > 50 µM | remarkably active | 0.4 µM (≈ 0.322 µg/mL) | – | detectable activity | – | detectable activity | – | susceptible | – | resistant | remarkably active | 0.4 µM (≈ 0.322 µg/mL) | Antibacterial activity (in words) ([2]; A. baumannii with plasmid-encoded β-lactamase (pNT255:adc1)): highly resistant; MIC [3, 12]: 12.5 µM (≈ 10.1 µg/mL); MIC [4, 13]: 25 µM (≈ 20.1 µg/mL); MIC (A. baumannii ATCC 17961; [14]): 0.8 µM (≈ 0.645 µg/mL); MIC [5, 15]: > 50 µM; MIC (P. aeruginosa KW799/wt; vs P. aeruginosa KW799/wt): 0.4
CC(=O)NC[C@H]1CN(c2ccc(N3CCN(C(=O)CNC(=O)CN(CCCCNC(=O)c4cccc(O)c4O)C(=O)c4cccc(O)c4O)CC3)c(F)c2)C(=O)O1 [Compound 27, (S)—N-(2-((2-(4-(4-(5-(Acetamidomethyl)-2-oxooxazolidin-3-yl)-2-fluorophenyl)piperazin-1-yl)-2-oxoethyl)amino)-2-oxoethyl)-N-(4-(2,3-dihydroxybenzamido)butyl)-2,3-dihydroxybenzamide] | not active | > 50 µM | > 50 µM | > 50 µM | not active | > 50 µM | > 50 µM | resistant | > 50 µM | resistant | > 50 µM | resistant | > 50 µM | resistant | not active | > 50 µM | –
C[C@@H]1CC[C@H]2[C@@H](C)C(=O)O[C@@H]3O[C@@]4(C)CC[C@@H]1[C@]32OO4 [artemisinin] | – | – | – | – | – | – | – | – | – | – | – | – | – | – | – | – | Anti-tuberculosis activity (in words) [6]: no anti-tuberculosis activity
